Measured values reported in paper PMC7096398, “Oxytocin Receptors Regulate Social Preference in Zebrafish” (Scientific Reports, 2020).
Entries after “also recorded” stand apart in the source; their conditions may differ.

Experiments:
Oxtr = molecular target: T1, Oxtr (Danio rerio, UniProt E4W699); experiment: Inositol phosphate accumulation assay, antagonism of 1 μM zVP at Oxtr; type: cell-based, zebrafish; settings: stimulated with zVP
T1 construct: host or cells: HEK293
T1 sequence (E4W699 1-388): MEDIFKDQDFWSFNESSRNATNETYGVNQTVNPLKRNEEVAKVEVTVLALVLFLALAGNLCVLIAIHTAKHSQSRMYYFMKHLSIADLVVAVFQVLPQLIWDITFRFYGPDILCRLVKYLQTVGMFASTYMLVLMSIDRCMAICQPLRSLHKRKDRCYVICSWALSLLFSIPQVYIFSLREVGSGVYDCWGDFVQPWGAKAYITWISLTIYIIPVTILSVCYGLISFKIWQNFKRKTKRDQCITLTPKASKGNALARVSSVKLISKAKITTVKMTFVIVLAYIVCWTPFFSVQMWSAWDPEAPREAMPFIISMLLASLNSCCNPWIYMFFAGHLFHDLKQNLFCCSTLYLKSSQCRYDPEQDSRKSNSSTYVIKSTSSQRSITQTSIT
Experimental: (§1) The receptor constructs were ordered from GeneScript and subcloned into a pcDNA3.1/CT-GFP-TOPO vector. The coding sequences of the GenBank entries NM_001199370.1 (oxtr), NM_001199369.1 (oxtrl), NM_001301114.1 (avpr1aa), and NM_001297676.1 (avpr1ab) were used for synthesis. The stop codons were removed, and an additional […] was added to facilitate hybrid protein expression with GFP in frame from the vector. The GCCACC Kozak sequence was inserted before the start codons. After transformation of the plasmid constructs into TOP10 competent cells (Thermo Fisher Scientific), the Maxiprep (Thermo Fisher Scientific) method was used to amplify the plasmids for transfection.
(§2) The Inositol phosphate accumulation assay was performed according to previous descriptions to measure the potency of different ligands for zebrafish different oxytocin related receptors. Each receptor construct was transfected into HEK293 cells using Lipofectamine 2000 (Thermo Fisher Scientific). Myo2-^3H-inositol (PerkinElmer) at 3 μCi/mL was added the day after transfection. […] Samples were mixed with OptiPhase HiSafe (PerkinElmer Waltham, MA, USA) and ^3H radioactivity was measured with a Tri-Carb 2910TR liquid scintillation counter (PerkinElmer Waltham, MA, USA). […]

Avpr1aa = molecular target: T2, Avpr1aa (Danio rerio, UniProt A0A8M1P1H3); experiment: Inositol phosphate accumulation assay, antagonism of 1 μM zVP at Avpr1aa; type: cell-based, zebrafish; settings: stimulated with agonist; antagonist up to 1 μM
T2 sequence (A0A8M1P1H3 1-379): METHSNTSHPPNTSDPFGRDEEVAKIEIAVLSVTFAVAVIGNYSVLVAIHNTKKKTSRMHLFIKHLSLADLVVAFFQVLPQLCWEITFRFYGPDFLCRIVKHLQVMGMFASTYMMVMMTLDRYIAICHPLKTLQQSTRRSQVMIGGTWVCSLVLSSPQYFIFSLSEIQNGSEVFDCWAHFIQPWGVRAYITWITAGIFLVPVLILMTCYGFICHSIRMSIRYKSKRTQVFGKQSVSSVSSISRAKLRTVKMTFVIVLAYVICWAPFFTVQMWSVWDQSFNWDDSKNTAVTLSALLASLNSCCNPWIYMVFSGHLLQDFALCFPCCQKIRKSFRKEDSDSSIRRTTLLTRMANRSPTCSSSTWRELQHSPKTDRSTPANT
Experimental: as §1, §2

larval zebrafish = experiment: Social preference in larval zebrafish; type: in vivo, zebrafish (Danio rerio); settings: 100 µM immersion 1 h
Experimental: The social preference test for young zebrafish has been described elsewhere. In brief, experiments were performed in custom-built arenas; see Fig. 5, consisting of laser-cut 5 mm high white acrylic walls placed on transparent flooring with transparent acrylic partitions. The dimensions of each arena were 40 × 32 mm, and the chambers containing stimulus fish was 15 × 15 mm. The areas in front of these stimulus compartments were designated Social Area (where the stimulus was placed) or Non-Social Area (where the stimulus was not placed). The water depth was 5 mm, and water parameters matched the ones housing water parameters. Nine arenas were placed adjacent to each other on an infrared (IR) back-light diffusing both IR and white light (Noldus, Wageningen, the Netherlands), with a digital monochrome high resolution GigE camera overhead (Noldus, Wageningen, the Netherlands), and surrounded by an opaque enclosure.
A 10 mM stock solution was prepared by dissolving L-368,899 in H2O (Milli-Q water purification system), and subsequently stored at −20 °C. The stock solution was diluted to a working concentration of 100 µM by addition of water adjusted to the same parameters kept in the fish facility. Larvae were immersed in 100 µM L-368,899 solution (treated fish) or in water matching housing conditions (control fish) for 1 hour prior to testing. Focal larvae were then transferred to test arenas and filmed for 15 minutes, with no stimulus present (acclimation period; AC). Following this, one stimulus larva was placed in a randomly selected stimulus chamber of each arena, and focal larvae were filmed for another 15 minutes (social cue period; SC). A total of 137 vehicle-treated fish and 109 antagonist-treated fish were tested, and after using the exclusion criteria described below, 87 vehicle-treated fish and 77 antagonist-treated fish were included in the statistical analyses.
Larval results were analysed using a social preference index (SPI). SPI was calculated by subtracting the time a focal larva spent in the Non-Social Area from the time it spent in the Social Area, and then dividing the result by the total time the larva was tracked in the entire arena. […] SPI was calculated for each focal larva for the AC period and the SC period separately. […] All data was analysed using paired T-tests to investigate change within the control and treated groups, and Student’s T-tests to investigate difference between the groups for each phase.

## Cc1ccccc1N1CCN(S(=O)(=O)C[C@]23CC[C@H](C[C@@H]2NC(=O)[C@@H](N)CCS(C)(=O)=O)C3(C)C)CC1 [L-368,899]
Oxtr
  Antagonism at Oxtr, in words: able to block zVP activation; also recorded: specifically inhibited; also recorded: potently antagonised
Avpr1aa
  Antagonism at Avpr1aa, in words: did not block the response; also recorded: without reducing the effect of the peptide agonist
Larval zebrafish
  Social preference in larvae, in words: decreased social preference
Larval zebrafish; t(76) = 0.177, p = 0.86, vehicle larvae significantly increased, p = 0.039
  Increase in SPI from acclimation to social cue: not present
Larval zebrafish; t(162) = 1,98, p = 0.049
  SPI during the social cue period vs vehicle: significantly lower SPI
Larval zebrafish; 3-week-old larvae, acclimation phase, mean ± SEM, n = 77, vehicle 0.06 ± 0.04
  Social Preference Index (AC): 0.00 ± 0.05
Larval zebrafish; 3-week-old larvae, acclimation phase, mean ± SEM, n = 77, vehicle 0.28 ± 0.01
  Locomotion (AC): Velocity: 0.30 ± 0.02 cm/s
Larval zebrafish; 3-week-old larvae, acclimation phase, mean ± SEM, n = 77, vehicle 249 ± 12
  Locomotion (AC): Distance: 265 ± 14 cm/min
Larval zebrafish; 3-week-old larvae, social cue phase, mean ± SEM, n = 77, vehicle 0.18 ± 0.05
  Social Preference Index (SC): 0.01 ± 0.06
